≈ marks a conversion by molar mass, not a printed value. Where only a bound is given, the exact number is not on record here.

As a reminder, the solubility (kinetic) is the concentration staying in solution when a stock, usually in DMSO, is diluted into the medium.

For the data set the following is noted: buffer; pH 7.4; 200.0 µM.
For the compound `Cc1nn(C)cc1S(=O)(=O)Nc1ccc(C(F)(F)F)cc1`, the solubility (kinetic) was above 47.9 µg/mL. Take `Cc1nc(SCC(=O)N2CCNC2=O)c2ccccc2n1`: the solubility (kinetic) is above 45.4 µg/mL. `O=C(CNC(=O)c1ccccc1)NCC(c1ccco1)N1CCCC1` (stereo not drawn) gave a solubility (kinetic) above 51.2 µg/mL. For the compound `COc1ccc(S(=O)(=O)NC(C)C(=O)NCc2ccncc2)cc1Cl` (stereo not drawn), the kinetic solubility is above 57.6 µg/mL. Regarding `Brc1ccccc1CN1CCC(Cc2ccccc2)CC1`, the solubility (kinetic) came out at 2.6 µg/mL (≈ 7.55 µM).

In the case of `O=C(O)/C=C/c1cccc(NC(=O)Nc2ccc([N+](=O)[O-])cc2)c1`, the solubility (kinetic) is above 49.1 µg/mL. In turn, `Clc1nssc1=Nc1ccccc1` registered a kinetic solubility of 22.3 µg/mL (≈ 97.5 µM).

Take `Cc1ccc(N2C(=O)[C@@H]3C(c4cccnc4)=NO[C@@H]3C2=O)cc1`: the kinetic solubility is above 46.1 µg/mL. Then `Cc1ccc(OC(C)C(=O)N(C)Cc2ccccc2)c([N+](=O)[O-])n1` (stereo not drawn), with 46.9 µg/mL (≈ 142 µM); and `COc1cccc2[nH]c(C(=O)NCc3ccccc3)cc12.Cl`, with 10.9 µg/mL. Then `O=C(Nc1nc2ccccc2n1CCN1CCOCC1)c1ccc(Cl)cc1`, with 0.9 µg/mL (≈ 2.34 µM); and `CC1=C([N+](=O)[O-])C(c2ccccc2C(F)(F)F)NC(=O)N1C` (stereo not drawn), with above 47.3 µg/mL.

The compound `COc1ccc(NC(=O)CNC(=O)c2ccco2)cc1S(=O)(=O)Nc1cc(C)ccc1Br` registered a solubility (kinetic) of 17.1 µg/mL (≈ 32.7 µM). For `O=c1oc2ccccc2c(Cl)c1CN1CCCCC1`, the kinetic solubility amounted to 41.4 µg/mL (≈ 149 µM).

With `O=S(=O)(Nc1ccc(C(F)(F)F)cn1)c1ccccc1`, the solubility (kinetic) worked out at 45.3 µg/mL (≈ 150 µM). In the case of `COc1ccccc1OCC#CCn1ccnc1.O=C(O)C(=O)O` it was above 49.8 µg/mL. In the case of `COc1ccc(/C=C(\C)c2nc(C)c(-c3ccccc3)c(=O)[nH]2)cc1` it was 1.4 µg/mL (≈ 4.21 µM).

`CSc1ccccc1C(=O)NCCSc1ccc(C)cc1` gave a kinetic solubility of 17.2 µg/mL (≈ 54.2 µM).

Regarding `COc1ccc(C(=O)Nn2c(C)nc3ccccc3c2=O)cc1`, the kinetic solubility is above 46.4 µg/mL.

In turn, `COc1ccc(NC(=O)Cn2cc(C(=O)C3CC3)c3ccccc32)cc1` displayed a solubility (kinetic) of 0.5 µg/mL (≈ 1.44 µM). Then `CCOC(=O)/C(C#N)=C/c1cccc(F)c1`, with 28.6 µg/mL (≈ 130 µM); and `Cc1c(C(=O)Oc2cccc3cccnc23)cccc1[N+](=O)[O-]`, with 7.9 µg/mL (≈ 25.6 µM).

`O=C(O)C(Cc1ccccc1)N1C(=O)c2c(Cl)c(Cl)c(Cl)c(Cl)c2C1=O` (stereo not drawn) had a kinetic solubility above 65 µg/mL. `COC(=O)c1cc(C(=O)Cc2ccccc2)c[nH]1` registered a kinetic solubility above 36.5 µg/mL. `C/C(=N\O)c1ccc2c(c1)CC(C)O2` (stereo not drawn) came in with a kinetic solubility above 28.7 µg/mL. As for `O=C(CN1CCc2ccccc2C1)NCC(=O)Nc1ccc(F)cc1`, the solubility (kinetic) came out at 17.1 µg/mL (≈ 50.1 µM). On to `COc1cccc(-c2nc(N)nc(SC)c2C#N)c1`, for which the solubility (kinetic) was 0.6 µg/mL (≈ 2.2 µM). For the compound `CC(=O)c1c(C)[nH]c(C(=O)CSc2ccc(F)cc2)c1C`, the kinetic solubility was determined as 2.5 µg/mL (≈ 8.19 µM). Compared with the last compound, the solubility kinetic is about 4.2-fold higher. Compound `Cc1cc(OC(=O)c2cccc(F)c2)c([N+](=O)[O-])c(=O)[nH]1` registered a solubility (kinetic) above 43.8 µg/mL. Compound `NC(=O)Nc1ccc(Cl)cc1` showed a kinetic solubility above 25.6 µg/mL. As to `CCOC(=O)c1sc(NC(=O)c2ccoc2C)c(C(N)=O)c1C`, the solubility (kinetic) stood at 7.3 µg/mL (≈ 21.7 µM). The compound `CC(=O)Nc1cccc(NC(=O)c2csc(C)c2)c1` showed a solubility (kinetic) above 41.2 µg/mL.

Turning to `N#C/C(=C\c1cccs1)C(=O)Nc1ccccn1`, the solubility (kinetic) stood at 12.8 µg/mL (≈ 50.1 µM). Turning to `C=CCNC(=O)CN1c2cccc3cccc(c23)S1(=O)=O`, the solubility (kinetic) is 40.4 µg/mL (≈ 134 µM). Against the preceding compound, the solubility kinetic is about 3.2-fold higher. Compound `COc1ccc(OC)c(NC(=O)c2ccno2)c1` displayed a kinetic solubility above 37.2 µg/mL. With `COc1ccc(CN2CC(C(=O)NCCC(C)C)CC2=O)cc1` (stereo not drawn), the solubility (kinetic) is above 47.8 µg/mL. Then `CCOc1ccc(NC(=O)c2ccccc2NC(=O)c2cccnc2)cc1`, with 1.4 µg/mL (≈ 3.87 µM). In the case of `O=C(c1ccc(Cl)s1)N1CCN(c2ncccn2)CC1` it was above 46.3 µg/mL. Compound `COC(=O)c1cccc(NC(=O)CN2CCc3ccccc3C2)c1` returned a kinetic solubility of 39.6 µg/mL (≈ 122 µM). In the case of `Fc1cccc(CNC2CCN(CCc3ccccc3)CC2)c1` it was 33.7 µg/mL (≈ 108 µM). `CCCn1c(N)c(N2CCCCC2)c(=O)n(CC(=O)Nc2ccc(C(C)=O)cc2)c1=O` registered a kinetic solubility of 14.8 µg/mL (≈ 34.6 µM). The compound `COCc1nnc(NC(=O)c2cc3ccccc3o2)s1` came in with a solubility (kinetic) above 43.4 µg/mL. `Nc1cc(N)nc(SCC(=O)NCc2ccco2)n1` yielded a kinetic solubility above 41.9 µg/mL. In the case of `N#CC(C#N)=C1C(=O)N(CCN2CCOCC2)c2ccccc21` it was above 46.3 µg/mL. Compound `COc1ccc(NC(=O)c2ccc3c(c2)OCCO3)cc1OC` returned a solubility (kinetic) of 10.3 µg/mL (≈ 32.7 µM). The compound `O=C(CCl)N(c1ccccc1)C1CCCCC1` registered a solubility (kinetic) of 36.6 µg/mL (≈ 145 µM). Then `CCOC(=O)C1CCCN(C(=S)Nc2ccc(OC)cc2)C1` (stereo not drawn), with 46 µg/mL (≈ 143 µM); and `O=C(CCC(=O)c1ccccc1)Nc1ccccc1OC(F)F`, with above 47.9 µg/mL. The compound `c1ccc2c(c1)CC1(CCCC1)N=C2N1CCOCC1` displayed a solubility (kinetic) of 35.5 µg/mL (≈ 131 µM). Then `COc1ccc(CNC(=O)CCn2c(C)csc2=O)cc1`, with above 46 µg/mL. In the case of `CCOc1ccc(NC(=O)CN2C(=O)CSC(C)C2=O)cc1` (stereo not drawn) it was above 48.4 µg/mL.

The compound `CNC(=S)N(CCCn1ccnc1)Cc1c(F)cccc1Cl` came in with a kinetic solubility of 49 µg/mL (≈ 144 µM). For `O=C([O-])Cc1csc(-c2cccc(Oc3ccccc3)c2)n1.[Na+]`, the kinetic solubility was 49.3 µg/mL.

As for `Cc1ccc(CNC(=O)CN(C)S(=O)(=O)c2ccc(F)cc2)cc1`, the kinetic solubility was determined as 1.8 µg/mL (≈ 5.14 µM). This solubility kinetic is about 27-fold lower than that of the compound before.

Regarding `S=c1[nH]cc(-c2ccc(Cl)cc2)n1Cc1ccccc1`, the kinetic solubility is below 0.3 µg/mL. Regarding `Oc1cc2c(cc1CN1CCN(c3ncccn3)CC1)OCO2`, the kinetic solubility was 17.2 µg/mL (≈ 54.7 µM). Then `COc1cccc(NC(=O)COC(=O)c2c(C)noc2C)c1`, with above 45.6 µg/mL; and `CC(NC(=O)CN1CCCC1)c1ccccc1` (stereo not drawn), with above 34.8 µg/mL.

`COc1ccc(-c2cc(C(=O)Nc3ccc(OC)c(OC)c3)no2)cc1`: the solubility (kinetic) is below 0.4 µg/mL. In the case of `Cc1nc2oc3ccccc3c(=O)c2cc1C(=O)O` it was above 38.3 µg/mL. `NC(=O)c1ccccc1NC(=O)CC12CC3CC(CC(C3)C1)C2` showed a solubility (kinetic) of 4.1 µg/mL (≈ 13.1 µM).

As for `N#C/C(=C\c1ccncc1)C(=O)Nc1ccc(C(=O)O)cc1`, the solubility (kinetic) was above 44 µg/mL. In the case of `O=C(Nc1ncc2c(n1)-c1ccccc1OC2)c1ccc(F)cc1` it was 6.1 µg/mL (≈ 19 µM); in that of `Cc1ccc(S(=O)(=O)c2c(C)c(C)c(C)[nH]c2=O)cc1`, 29.7 µg/mL (≈ 102 µM); in that of `CCCC(=O)Nc1ccc(OCC(O)CNC(C)C)c(C(C)=O)c1.Cl` (stereo not drawn), above 55.9 µg/mL. Then `Cn1nc(C(F)(F)F)c(-c2ccccc2)c1NC(=O)CSCC(=O)O`, with above 56 µg/mL.

With `O=C(OCC(=O)c1ccccc1Br)c1ccncc1`, the solubility (kinetic) is above 48 µg/mL. In the case of `O=C(Nc1ccccc1)c1ccc(NC(=O)C2CC2)cc1` it was 1.2 µg/mL (≈ 4.28 µM); in that of `Cc1ccc2cc(C#N)c(N3CCN(C(=O)c4cccs4)CC3)nc2c1`, below 0.2 µg/mL.

In turn, `Cc1ccc(SCCN2CCN(C)CC2)cc1.Cl` registered a kinetic solubility of 35.5 µg/mL. Consider `COCN(C#N)c1nc(N(C)C)nc(N(C)C)n1`, for which the kinetic solubility is above 37.7 µg/mL. In the case of `COc1ccc(NC(=O)COc2cccnc2[N+](=O)[O-])cc1OC` it was above 50 µg/mL. Then `CCOc1ccc(NC(=O)c2cc(OC)nc3ccccc23)cc1`, with 0.6 µg/mL (≈ 1.86 µM). In the case of `COc1ccc(CNCc2ccncc2)c(OC)c1.Cl` it was above 44.2 µg/mL. `COc1ccc(NC(=S)Nc2ccc(N(C)C(C)=O)cc2)cc1` registered a kinetic solubility above 49.4 µg/mL.

`CC(=O)Oc1ccc(C2(C)CC(C)(C)NC(=S)N2C)c(OC(C)=O)c1` (stereo not drawn) returned a kinetic solubility above 54.7 µg/mL. Then `O=C(CN1CCOCC1)NCc1ccccc1Cl`, with above 40.3 µg/mL; and `COc1ccccc1C1CCN(c2cc(O)ccc2[N+](=O)[O-])CC1`, with 38.9 µg/mL (≈ 118 µM); and `COc1ccccc1OCCCN1C(=O)C(=O)c2cccc(C)c21`, with 40.1 µg/mL (≈ 123 µM). Then `O=C(c1ccc2[nH]c(=O)c(=O)[nH]c2c1)N1CCc2ccccc21`, with 43 µg/mL (≈ 140 µM); and `COc1ccc(S(=O)(=O)N2CCc3ccccc32)cc1C(=O)NCC(c1ccco1)N1CCCC1` (stereo not drawn), with 20.1 µg/mL (≈ 40.6 µM). Compound `CC(=O)NCCC(=O)Nc1nc(-c2ccc3ccccc3c2)cs1` returned a solubility (kinetic) of 6.5 µg/mL (≈ 19.2 µM). In turn, `CC(=O)Nc1ccc(S(=O)(=O)NCC(=O)OCC(=O)N2CC(C)OC(C)C2)cc1` (stereo not drawn) yielded a solubility (kinetic) above 64.1 µg/mL. Regarding `Cc1ccc(NS(=O)(=O)Cc2ccccc2)cc1Cl`, the solubility (kinetic) was 1.8 µg/mL (≈ 6.09 µM). In the case of `O=C(Nc1c(-c2ccc(F)cc2)nc2ccccn12)c1ccc(F)cc1` it was 3.3 µg/mL (≈ 9.45 µM); in that of `Cc1nc2ccc(C(=O)O)cc2c2c1CC(CN)O2` (stereo not drawn), 19.7 µg/mL (≈ 76.3 µM). `O=C(O)c1cccnc1SCC(=O)C12CC3CC(CC(C3)C1)C2` registered a kinetic solubility above 49.7 µg/mL.

In the case of `O=C(NCc1cccnc1)Nc1ccc(Cl)cc1Cl`, the kinetic solubility is above 44.4 µg/mL.

Consider `COc1ccc(CC(=O)NCc2ccccc2)cc1OC`, for which the kinetic solubility was above 42.8 µg/mL. As to `CC1CCN(c2nc3ccccn3c(=O)c2C=O)CC1`, the kinetic solubility is above 40.7 µg/mL. Turning to `O=C(O)[C@@H]1Cc2ccccc2N1`, the solubility (kinetic) is 6.6 µg/mL (≈ 40.4 µM). Consider `Cc1cc([N+](=O)[O-])ccc1NC(=S)NC1CCCC1`, for which the kinetic solubility turned out to be 21.9 µg/mL (≈ 78.4 µM). In turn, `O=C(c1ccccc1)N1CCN(S(=O)(=O)c2cccs2)CC1` displayed a kinetic solubility above 50.5 µg/mL. In turn, `C=CCNc1nc(Cl)nc(Nc2ccccc2)n1` displayed a kinetic solubility of 2.2 µg/mL (≈ 8.41 µM). In turn, `COc1ccc(NC(=S)NC(=O)/C=C/c2ccco2)c(OC)c1` displayed a solubility (kinetic) below 0.4 µg/mL. Then `Cc1cc(C)c2c(=O)[nH]c(SCC(=O)N3CCOCC3)nc2n1`, with above 50.2 µg/mL. In the case of `CCOCCCNc1ncnc2c1nc1n2CCCC1` it was above 41.3 µg/mL; in that of `COc1ccccc1NS(=O)(=O)c1cc(N)ccc1N1CCCC1`, 21.4 µg/mL (≈ 61.6 µM); in that of `CCCCC(=O)Nc1ccc(C2C(=O)c3ccccc3C2=O)cc1`, 44 µg/mL (≈ 137 µM). In the case of `CC1(C(=O)Nc2nc3ccc(S(C)(=O)=O)cc3s2)CC1(Cl)Cl` (stereo not drawn) it was 52.1 µg/mL (≈ 137 µM); in that of `CCC(NC(=O)C1CCCO1)c1ccccc1` (stereo not drawn), above 35 µg/mL.

The compound `O=C(O)/C=C/C(=O)Nc1ccc(OC(F)(F)F)cc1` came in with a solubility (kinetic) of 38.8 µg/mL (≈ 141 µM). `CNC(=O)C(=O)Nc1cc2c3c(c1)C(C)C(=O)N3CCC2` (stereo not drawn): the kinetic solubility was above 43.1 µg/mL.

(Values after PubChem BioAssay AID1996.)
